Reference: patent US7625713B2, “Process for identifying a ligand that binds to the NEP binding site for the SMR1 pentapeptide” (Institut Pasteur, priority 2000, dated 2009)
Where a SMILES comes first, the peptide text is derived from it.

Columns and labels:
[1] = test system: male SPF Wistar/AF rats; assay: Aversive light stimulus avoidance test (ALSAT); assay type: in vivo, rat; settings: 50 μg/kg, I.V.; for Total number of times the two levers were pressed / Number of times AL pressed / Number of times IL pressed: mean ± SEM; for Number of times AL pressed: active lever; for Number of times IL pressed: inactive lever
Procedure: Twenty four male SPF Wistar/AF rats weighing from 300 to 320 g were used. Upon reception, the rats were weighed, marked and distributed, in groups of 3, into F-type polycarbonate cages. The animals were housed in an air-conditioned animal house at a temperature of 22-24° C. Food and drink was available to the rats ad libitum. They were subjected to a 12-hour light/dark cycle (light from 8 pm to 8 am).
After a period of familiarization with the laboratory conditions of one week, the 24 rats were randomly divided into 2 groups (n=12). The rats from the various groups were all handled in the same way and under the same conditions.
The rat is placed in the cage for 20 minutes and the number of times each lever is pressed is counted during the experiment.
This model uses the aversion of the rat to a brightly lit environment. During the familiarization session and the learning session, the rat learns to control the aversive light environment of the test device in the context of operant conditioning: the animal learns to press the active lever in order to obtain periods of darkness.
The learning test is made up over two sessions: • Session 1, familiarization with the experimental device (day 1); • Session 2, learning test (day 2).
The QHNPR (SEQ ID NO: 2) peptide is suspended in a proportion of 500 μg per 5 ml of 0.01 N acetic acid, and then diluted with PBS in order to be administered at the dose of 50 μg/kg, via the i.v. route, in the dorsal caudal vein of the rat, 1 minute before the test.
A two-sided probability unpaired t-test was used to compare the lever-pressing activity of the two groups of rats.
The results are expressed as mean±standard error of the mean (SEM).

[2] = test system: male rats; assay: Pin pain test; assay type: in vivo, rat
Procedure: The 3-min test session was performed 5 min after intravenous. rat tail vein administration of sialorphin or its vehicle. Naloxone (0.3 mg per kg body weight) was injected subcutaneously 15 min before sialorphin administration. Time in centre field sector (FIG. 6-C) (central square of the open-field without pin) and activity (FIGS. 6-A and 6-B) in peripheral squares (overlayed with pins) during the 3-min test session. Each value represents the mean±sem of 8 animals per group. […] Control group corresponded to pain response in vehicle-treated rats. 50 μg/kg sialorphin, 100 μg/kg sialorphin, 100 μg/kg sialorphin plus naloxone 0.3 mg/kg.
To extend the insight into the in vivo possible antinociceptive property of sialorphin through enkephalin-degrading enzyme inhibition, its effects were assessed in rat model of pain, i.e. the pin pain test, (Hebert et al. (1999) Physiology & Behavior 67, 99-105) in which the various behavioural parameters of pain responses were recorded with a 3-min cutoff time.
The in vivo activity of sialorphin was tested on the pin pain assay using male rats (350-400 g, Charles Rivers). The experimental device consists in an open-field (45×45×40 cm) which is divided into nine equal squares (150×150 mm), eight of them are peripheral and one is central. The peripheral squares are overlayed with stainless steel pins (2/cm2, length 8 mm and diameter 0.6 mm). The test consisted in placing the rat in the central square of the open-field and recording its different behaviours (cut-off time, 3 min). Two days before the pain test, the rats were familiarised with the experimental device without pins for 20 min, so as to reduce the stress linked to the spatial neophobia. All statistical analyses were carried out using the Statview 5 statistical package.

[3] = molecular target: T1, NEP (Rattus norvegicus, UniProt P07861); assay: Kinetic analysis of inhibition of substance P catabolism by rat renal membranes; assay type: biochemical
T1 construct: peripheral tissue membrane preparations that are known to be enriched in NEP-peptidase; from tissue; host or cells: rat renal outer medulla/kidney, intestine mucosa, placenta, prostate, dental and bone tissues, submandibular gland (membrane preparations)
T1 sequence (P07861 2-750): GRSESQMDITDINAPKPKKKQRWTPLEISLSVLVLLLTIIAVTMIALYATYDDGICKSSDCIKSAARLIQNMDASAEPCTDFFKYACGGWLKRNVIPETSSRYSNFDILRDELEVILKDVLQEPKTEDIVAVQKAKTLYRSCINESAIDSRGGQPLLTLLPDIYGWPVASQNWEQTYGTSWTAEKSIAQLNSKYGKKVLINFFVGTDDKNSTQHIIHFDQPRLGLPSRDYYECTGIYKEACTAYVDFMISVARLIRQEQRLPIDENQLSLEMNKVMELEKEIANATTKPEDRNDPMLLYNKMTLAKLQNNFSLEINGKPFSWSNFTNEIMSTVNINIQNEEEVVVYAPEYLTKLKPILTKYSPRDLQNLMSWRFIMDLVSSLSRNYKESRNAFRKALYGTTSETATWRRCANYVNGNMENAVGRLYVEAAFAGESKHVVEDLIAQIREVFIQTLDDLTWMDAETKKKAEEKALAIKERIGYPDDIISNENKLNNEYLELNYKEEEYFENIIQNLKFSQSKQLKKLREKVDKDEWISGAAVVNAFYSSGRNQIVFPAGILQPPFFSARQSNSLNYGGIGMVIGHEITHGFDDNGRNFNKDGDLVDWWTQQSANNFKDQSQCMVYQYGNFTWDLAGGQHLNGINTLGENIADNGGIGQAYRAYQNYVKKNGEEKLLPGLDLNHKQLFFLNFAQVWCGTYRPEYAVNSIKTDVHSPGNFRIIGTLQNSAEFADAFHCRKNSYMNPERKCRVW
Procedure: The inhibitory potency of sialophin was measured by using substance P as substrate at concentrations indicated for A and B, and at 14-24 nM (blank triangle) or 56-105 nM (black triangle) for FIG. 5-C. Concentrations of inhibitor for FIG. 5-A and FIG. 5-B were 0 (black circles), 1500 (blank circle) and 4500 nM (blank diamond). Each point of the untransformed and double reciprocal plots represents the mean of 2 independent determinations of duplicate. Experiments were performed at 25° C. in 250 μl Tris-HCl buffer (50 mM pH 7.4) under initial velocity measurement conditions.
In order to determine inhibitor modality, all the measures of initial velocity of the renal enzymatic reaction were plotted versus substrate concentration for several fixed inhibitor concentrations or versus inhibitor concentration for fixed substrate concentrations.

[4] = 100 μg per kg intravenous, 3-min trial, n=8, mean±sem

raising of the apparent Km of the enzyme for substrate ([3]; 0, 1500 and 4500 nM inhibitor, substance P substrate, rat renal membranes): 2-5 fold
inhibitor modality ([3]; untransformed, double-reciprocal and Dixon plots, [3H] substance P, renal membrane, 25° C.): competitive inhibition
Compound: N=C(N)NCCC[C@H](NC(=O)[C@@H]1CCCN1C(=O)[C@H](CC(N)=O)NC(=O)[C@H](Cc1c[nH]cn1)NC(=O)[C@@H](N)CCC(N)=O)C(=O)O [sialorphin, Gln-His-Asn-Pro-Arg] (H-QHNPR-OH; N-terminus and C-terminus assumed)
Total number of times the two levers were pressed ([1]; Session 1, 1 minute before the test): 10.08 ± 1.98
Number of times AL pressed ([1]; Session 1): 4.83 ± 1.02
Number of times IL pressed ([1]; Session 1): 5.25 ± 1.14
Number of times AL pressed ([1]; Session 2): 2.67 ± 0.47
Number of times IL pressed ([1]; Session 2): 2.58 ± 0.94
Total number of times the two levers were pressed ([1]; Session 2): 5.25 ± 5.09
Distinction between the levers ([1]; both test sessions): no distinction between the two levers
frequency of crossings peripheral squares ([2]; 100 μg per kg intravenous, 3-min trial 5 min after administration, n=8, mean±sem): 11.13±1.43
number of audible vocalisation responses [2, 4]: 0.25±0.16
number of escape responses [2, 4]: 0.13±0.13
rearings on peripheral squares [2, 4]: 3.88±0.83
analgesia ([2]; 100 μg/kg given intravenously): 74-97%
time in the central area of the open-field ([2]; sialorphin intravenous alone, second test trial, 3-min test): 57.75 ± 21.30 s
